In US20220048873A1, “PESTICIDALLY ACTIVE C[…] AMIDE DERIVATIVES” (SYNGENTA CROP PROTECTION AG, priority 2018, published 2022):

Assays:
Type in all cases: in vivo
[1] = test system: Spodoptera littoralis (Egyptian Cotton Leaf Worm); assay: Spodoptera littoralis control on sprayed cotton leaf discs; settings: foliar, 72 h, application rate of 200 ppm, L1 larvae, 3 days after infestation, read-out: control (at least one of mortality, anti-feedant effect, growth inhibition)
Method: Cotton leaf discs were placed onto agar in 24-well microtiter plates and sprayed with aqueous test solutions prepared from 10′000 ppm DMSO stock solutions. After drying the leaf discs were infested with five L1 larvae. The samples were assessed for mortality, anti-feeding effect, and growth inhibition in comparison to untreated samples 3 days after infestation. Control of Spodoptera littoralis by a test sample is given when at least one of the categories mortality, anti-feedant effect, and growth inhibition is higher than the untreated sample.

[2] = test system: Euschistus heros (Neotropical Brown Stink Bug); assay: Euschistus heros feeding/contact activity on sprayed soybean leaves; settings: 120 h, application rate of 200 ppm, N2 nymphs, 5 days after infestation
Method: Soybean leaves on agar in 24-well microtiter plates were sprayed with aqueous test solutions prepared from 10,000 ppm DMSO stock solutions. After drying the leaves were infested with N2 nymphs. The samples were assessed for mortality 5 days after infestation.

[3] = test system: Plutella xylostella (Diamond Back Moth); assay: Plutella xylostella feeding/contact activity on treated artificial diet; settings: 192 h, application rate of 200 ppm, eggs, 8 days after infestation
Method: 24-well microtiter plates with artificial diet were treated with aqueous test solutions prepared from 10,000 ppm DMSO stock solutions by pipetting. After drying, Plutella eggs were pipetted through a plastic stencil onto a gel blotting paper and the plate was closed with it. The samples were assessed for mortality 8 days after infestation.

CCOC(=O)OCN(CC1(C#N)CC1)C(=O)c1ccc(C2=NO[C@@](c3cc(Cl)c(F)c(Cl)c3)(C(F)(F)F)C2)cc1C [A2, [(1-cyanocyclopropyl)methyl-[4-[(5S)-5-(3,5-dichloro-4-fluoro-phenyl)-5-(trifluoromethyl)-4H-isoxazol-3-yl]-2-methyl-benzoyl]amino]methyl ethyl carbonate]
≥ 80%: percent control (mortality, anti-feedant effect or growth inhibition) at 200 ppm [1] | mortality at 200 ppm [2] | mortality at 200 ppm [3]

COC(=O)OCN(CC1(C#N)CC1)C(=O)c1ccc(C2=NO[C@@](c3cc(Cl)c(F)c(Cl)c3)(C(F)(F)F)C2)cc1C [A1, [(1-cyanocyclopropyl)methyl-[4-[(5S)-5-(3,5-dichloro-4-fluoro-phenyl)-5-(trifluoromethyl)-4H-isoxazol-3-yl]-2-methyl-benzoyl]amino]methyl Methyl Carbonate]
≥ 80%: percent control (mortality, anti-feedant effect or growth inhibition) at 200 ppm [1] | mortality at 200 ppm [2] | mortality at 200 ppm [3]
